The target of data set [1] is T1, GLP-1 receptor (Homo sapiens, UniProt P43220). As to the kind of experiment: GLP-receptor luciferase bioassay of samples incubated in 20% human plasma (restored activity). The format is cell-based. The following applies: 37° C.; for Change of activity over the time points in plasma: 0 to 5 d. As for the experimental part:
To explore the possible formation of DKP and simultaneous regeneration of the parent drug, the above-mentioned peptides were incubated in 20% human plasma at 37° C. for approximately 5 days. Samples were collected at different time points (0, 1, 2, and 5 days).

Data set [2] concerns diet induced obesity (DIO) mice. The experiment in a line: In vivo effects in DIO mice, single injection (Example 4). Particulars: single s.c. injection, lower dose (10 nmol/kg), Day 0-5. On the set-up: species or system mice (strain: C57B16). As for the experimental part: The Peptide D prodrug described in Example 3 was tested for its in vivo effects in diet induced obesity (DIO) mice (strain: C57B16). Nine groups of eight mice (with an initial average body weight of 50 g) were subcutaneously injected with vehicle only or 10 nmol/kg or 50 nmol/kg of a Peptide D acylated prodrug of Example 3, the parent peptide (i.e., Peptide D lacking an acylated dipeptide prodrug moiety), Peptide D with an acylated lysine residue linked directly the 4-amino phenylalanine at position 10, or the following peptide: YAib[…](γEγE-C16)[…]ib[…] (SEQ ID NO: 3082) (Peptide F). The mice were 6 months old and had been on a high fat diet for approximately 2 months. Body weight was monitored for a week following injection and was measured on Day 0, 1, 2, and 5, wherein Day 0 was the day of injection (FIG. 2).

Data set [3] has the same test system. As to the kind of experiment: In vivo effects of acyl chain length variants in DIO mice, single injection (Example 5). Set-up: species or system mice (strain: C57B16). The following applies: single s.c. injection, 10 nmol/kg, Day 0-7. As for the experimental part:
The Peptide D variants described above were also tested for their in vivo effects in diet induced obesity (DIO) mice (strain: C57B16). Nine groups of eight mice (with an initial average body weight of 50 g) were subcutaneously injected with vehicle only, or 10 nmol/kg of a Peptide D with C18 acylation via the dipeptide prodrug moiety (as described in Example 3), the parent peptide (i.e., Peptide D lacking acylation and lacking a dipeptide prodrug moiety), Peptide D with a C18 acyl group linked directly to the 4-amino phenylalanine at position 10, a Peptide D with C20 acylation via the dipeptide prodrug moiety, Peptide D with a C20 acyl group linked directly to the 4-amino phenylalanine at position 10, a Peptide D with C22 acylation via the dipeptide prodrug moiety, and Peptide D with a C22 acyl group linked directly to the 4-amino phenylalanine at position 10. The mice were 6 months old and had been on a high fat diet for approximately 2 months. Body weight was monitored for a week following injection and was measured on Day 0, 1, 2, 5, and 7 wherein Day 0 was the day of injection (FIG. 3A, 3B).

Data set [4] shares this test system. The experiment in a line: In vivo effects of daily prodrug injection in DIO mice (Example 6). On the set-up: species or system mice (strain: C57B16). Particulars: s.c. daily for 5 days, 10 nmol/kg. As for the experimental part: C22 acylated versions of Peptide D were also tested for their in vivo effects in diet induced obesity (DIO) mice (strain: C57B16) following daily administrations. Nine groups of eight mice (with an initial average body weight of 65 g) were subcutaneously injected daily for 5 days with vehicle only or 3 nmol/kg or 10 nmol/kg of Peptide D (parent peptide), a Peptide D with C22 acylation via the prodrug dipeptide moiety and Peptide D with a C22 acyl group linked directly to the 4-amino phenylalanine at position 10. The mice were 11 months old and had been on a high fat diet for approximately 2 months. Body weight was monitored for a week following injection and was measured on Day 0, 1, 2, 3, 4 and 7, wherein Day 0 was the day of injection (FIG. 4A, 4B).

Data set [5] is classed as physicochemical. Particulars: buffer. Here is the method: Preliminary analyses were performed with these crude peptides for an approximation of their relative conversion rates in Phosphate Buffered Saline (PBS) buffer (pH, 7.2) using high performance liquid chromatography (HPLC) and MALDI analysis. The crude peptide samples were dissolved in the PBS buffer at a concentration of 1 mg/mL. […] Aliquots of 100 μL were drawn out at various time intervals, cooled to room temperature and analyzed by HPLC. […] The peptides described above were incubated in PBS buffer or serum at 37° C. for up to 8 days. Samples were collected at different time points for PBS and plasma and half-life was determined. […] The peptides described above were incubated in PBS buffer or serum at 37° C. for up to 8 days. Samples were collected at different time points for PBS and plasma and half-life was determined. […] The shorter half-life seen when the acylated dipeptide was linked to […] might be due to a conformational change that facilitates cleavage when bound to plasma or alternatively to reduced detection of the acylated form when bound to plasma.

Data set [6] is classed as in vitro ADME. Here is the method: The peptides described above were incubated in PBS buffer or serum at 37° C. for up to 8 days. Samples were collected at different time points for PBS and plasma and half-life was determined. […] The peptides described above were incubated in PBS buffer or serum at 37° C. for up to 8 days. Samples were collected at different time points for PBS and plasma and half-life was determined. […] The shorter half-life seen when the acylated dipeptide was linked to […] might be due to a conformational change that facilitates cleavage when bound to plasma or alternatively to reduced detection of the acylated form when bound to plasma.

For data set [7], the target named is T1, GLP-1 receptor. As to the kind of experiment: GLP-1 agonist activity, cAMP production in an in vitro assay. It counts as cell-based. Particulars: versus glucagon receptor.
Text: Receptor activation can be measured by in vitro assays measuring cAMP induction in HEK293 cells over-expressing the receptor, e.g. assaying HEK293 cells co-transfected with DNA encoding the receptor and a luciferase gene linked to cAMP responsive element as described in the examples.
Data set [8] deals with diet induced obese (DIO) mice. As to the kind of experiment: In vivo effects of alternate prodrug injection schemes in DIO mice (Example 7). On the set-up: species or system mice (strain: C57B16). Particulars: s.c., 40 nmol/kg once, 20 nmol/kg twice, or 10 nmol/kg daily for four days. As for the experimental part:
C22 acylated versions of Peptide D were also tested for their in vivo effects in diet induced obese (DIO) mice (strain: C57B16) following alternative administration schedules. Two groups of eight mice (with an initial average body weight of 65 g) were subcutaneously injected once with 40 nmol/kg of Peptide D (parent peptide without acylation and without a dipeptide prodrug moiety), or 40 nmol/kg of a Peptide D with C22 acylation via the dipetide prodrug moiety. Three groups of eight mice were subcutaneously injected twice (1 day between injections, e.g., Monday-Wednesday) with vehicle only, 20 nmol/kg of Peptide D (parent peptide), or 20 nmol/kg of a Peptide D C22 acylated prodrug. Finally, three groups of eight mice were subcutaneously injected daily for four days with vehicle only, 10 nmol/kg of Peptide D (parent peptide), or 10 nmol/kg of a Peptide D C22 acylated prodrug.

Where [9] appears, read: after last injection on day 4 to day 7.

Read-outs that look alike come from different tables or passages of the source. Non-standard residues stand in square brackets, D forms with d. Residues, ends and D or L forms follow the SMILES beside them. Groups on a side chain read outwards from the residue. No end group written: not given here. *: point of attachment. Docosanoyl = CCCCCCCCCCCCCCCCCCCCCC(=O)*; Phe(4-NH2) = Nc1ccc(C[C@H](N)C(=O)O)cc1; Aib = CC(C)(N)C(=O)O; Sar = CNCC(=O)O

T1 sequence (P43220 24-463): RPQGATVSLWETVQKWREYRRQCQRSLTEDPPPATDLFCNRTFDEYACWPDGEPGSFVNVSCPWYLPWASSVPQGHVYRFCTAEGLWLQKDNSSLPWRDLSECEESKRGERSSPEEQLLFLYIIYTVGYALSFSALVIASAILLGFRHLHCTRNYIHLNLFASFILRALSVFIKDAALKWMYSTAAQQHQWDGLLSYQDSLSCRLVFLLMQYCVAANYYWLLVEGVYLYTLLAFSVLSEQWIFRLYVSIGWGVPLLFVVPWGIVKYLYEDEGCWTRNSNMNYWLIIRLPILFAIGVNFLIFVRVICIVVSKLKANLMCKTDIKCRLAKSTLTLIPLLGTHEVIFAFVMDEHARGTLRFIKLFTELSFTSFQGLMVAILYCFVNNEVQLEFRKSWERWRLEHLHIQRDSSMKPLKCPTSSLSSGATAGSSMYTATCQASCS

Consider “FAibEGTFTSDF(NH2)SIYLDKQAAAibEFVNWLLAGGPSSGAPPPS (F[Aib]EGTFTSD[Phe(4-NH2)]SIYLDKQAA[Aib]EFVNWLLAGGPSSGAPPPS-NH2; N-terminus assumed; SMILES CC[C@H](C)[C@H](NC(=O)[C@H](CO)NC(=O)[C@H](Cc1ccc(N)cc1)NC(=O)[C@H](CC(=O)O)NC(=O)[C@H](CO)NC(=O)[C@@H](NC(=O)[C@H](Cc1ccccc1)NC(=O)[C@@H](NC(=O)CNC(=O)[C@H](CCC(=O)O)NC(=O)C(C)(C)NC(=O)[C@@H](N)Cc1ccccc1)[C@@H](C)O)[C@@H](C)O)C(=O)N[C@@H](Cc1ccc(O)cc1)C(=O)N[C@@H](CC(C)C)C(=O)N[C@@H](CC(=O)O)C(=O)N[C@@H](CCCCN)C(=O)N[C@@H](CCC(N)=O)C(=O)N[C@@H](C)C(=O)N[C@@H](C)C(=O)NC(C)(C)C(=O)N[C@@H](CCC(=O)O)C(=O)N[C@@H](Cc1ccccc1)C(=O)N[C@H](C(=O)N[C@@H](CC(N)=O)C(=O)N[C@@H](Cc1c[nH]c2ccccc12)C(=O)N[C@@H](CC(C)C)C(=O)N[C@@H](CC(C)C)C(=O)N[C@@H](C)C(=O)NCC(=O)NCC(=O)N1CCC[C@H]1C(=O)N[C@@H](CO)C(=O)N[C@@H](CO)C(=O)NCC(=O)N[C@@H](C)C(=O)N1CCC[C@H]1C(=O)N1CCC[C@H]1C(=O)N1CCC[C@H]1C(=O)N[C@@H](CO)C(N)=O)C(C)C) [Parent peptide (Peptide D), Peptide D lacking acylation and lacking a dipeptide prodrug moiety]”, for which the “Change of activity over the time points in plasma” value in the data set with GLP-1 receptor [1] is recorded as “No change”. Also, the Body weight entry in data set [2] is recorded as “declined through day 1, but returned close to the starting weight by day 5”; in data set [3], “declined through day 1, but returned toward the starting weight by day 7”; in data set [4] (setting [9]) it was “began gaining weight”.

Take `CC[C@H](C)[C@H](NC(=O)[C@H](CO)NC(=O)[C@H](Cc1ccc(N)cc1)NC(=O)[C@H](CC(=O)O)NC(=O)[C@H](CO)NC(=O)[C@@H](NC(=O)[C@H](Cc1ccccc1)NC(=O)[C@@H](NC(=O)CNC(=O)[C@H](CCC(=O)O)NC(=O)C(C)(C)NC(=O)[C@@H](N)Cc1ccccc1)[C@@H](C)O)[C@@H](C)O)C(=O)N[C@@H](Cc1ccc(O)cc1)C(=O)N[C@@H](CC(C)C)C(=O)N[C@@H](CC(=O)O)C(=O)N[C@@H](CCCCN)C(=O)N[C@@H](CCC(N)=O)C(=O)N[C@@H](C)C(=O)N[C@@H](C)C(=O)NC(C)(C)C(=O)N[C@@H](CCC(=O)O)C(=O)N[C@@H](Cc1ccccc1)C(=O)N[C@H](C(=O)N[C@@H](CC(N)=O)C(=O)N[C@@H](Cc1c[nH]c2ccccc12)C(=O)N[C@@H](CC(C)C)C(=O)N[C@@H](CC(C)C)C(=O)N[C@@H](C)C(=O)NCC(=O)NCC(=O)N1CCC[C@H]1C(=O)N[C@@H](CO)C(=O)N[C@@H](CO)C(=O)NCC(=O)N[C@@H](C)C(=O)N1CCC[C@H]1C(=O)N1CCC[C@H]1C(=O)N1CCC[C@H]1C(=O)N[C@@H](CO)C(N)=O)C(C)C` [Peptide D] (H-F[Aib]EGTFTSD[Phe(4-NH2)]SIYLDKQAA[Aib]EFVNWLLAGGPSSGAPPPS-NH2; N-terminus and C-terminus assumed): the half-life in data set [5] and in data set [6] was approximately 24 h each time. The figures for the Body weight entry in data set [2] and in data set [3] were “decline in weight through day 2 before weight began to increase slightly” and “caused the most weight loss”, respectively.

Take “SEQ ID NO: 22: glucagon analog substituting the native glutamine at position 3 with glutamic acid”: the “selectivity for the GLP-1 receptor” value in the data set with GLP-1 receptor [7] was “approximately a tenfold selectivity for the GLP-1 receptor”.

With “C22 attached to position 10 (via A-B prodrug): Peptide D with (d)Lysine-sarcosine dipeptide on 4-amino group of phenylalanine at position 10, C22 acyl on epsilon amino of (d)Lysine (F[Aib]EGTFTSD[Phe(4-NH2)]([Sar-dK-Docosanoyl])SIYLDKQAA[Aib]EFVNWLLAGGPSSGAPPPS; not fully specified (C-terminus))”, the “Restored (activity relative to parent peptide)” value with GLP-1 receptor [1] (0 d) was “Restored 36%”; with GLP-1 receptor [1] (1 d), “Restored 57%”; with GLP-1 receptor [1] (5 d), “Restored 87%”. Moreover, in the data set with GLP-1 receptor [1], the “Change of activity over the time points in plasma” value was “Activity Restored”. Besides, the figures for the Body weight entry in data set [4] (setting [9]) and in data set [4] (through day 4) were “continued to lose weight through day 7” and “caused the most weight loss”, respectively. For the same compound, the “Body weight (weight loss compared to the parent peptide)” value in data set [8] is “more total and sustained weight loss”.

The record behind these values is US20160058881A1, “PRODRUGS WITH PROLONGED ACTION” (INDIANA UNIVERSITY RESEARCH AND TECHNOLOGY CORPORATION, priority 2013, published 2016).
